Literature values, collected in US20260262632A1, “COMPOSITIONS AND METHODS FOR TANK-MIX SPRAY APPLICATION OF 1-MCP” (AGROFRESH INC., priority 2023, published 2026).

## CC1=CC1 [1-MCP, 1-Methylcyclopropene]
  concentration above which gaseous 1-MCP is flammable: > 13,300 ppm
